Legend:
[1] = tested on: Pyruvate Dehydrogenase; test: Generation of an enzyme modulator from liver plasma membranes, pyruvate dehydrogenase readout; type: biochemical, rat
Protocol: (§1) Purification of the Enzyme Modulator. Bovine liver particulate fraction was prepared as described previously [Saltiel A. R., (1984) "Preparation and Characterization of Putative Insulin Mediators from Liver", METHODS IN DIABETES […], eds. J. Larner, S. Pohl, I:73]. Solutions were incubated in 5 mM ammonium bicarbonate, pH 7.4 with 10 nM insulin or 1 ug/ml PI-PLC as described in the figure legends. Following incubation, solutions were acidified to pH 4.0 and centrifuged at 35,000 x g for 20 minutes. Resulting supernatants were extracted with chloroform/methanol (2:1). The upper aqueous phase was aspirated and methanol was evaporated. Enzyme modulating activities were purified as described in Publication No. 6 listed earlier herein. Briefly, the extract was chromatographed on DEAE-Cellulose and eluted with 0.25M triethylamine (TEA)-formate, pH 3.75. This was followed by chromatography on C-18 reversed phase resin, in the same buffer, followed by Dowex 50W X-4 in 50 mM TEA-formate, pH 3.0. The resulting eluate was lyophilized, resuspended in 50 mM TEA-formate, pH 4.5 and sequentially chromatographed on QAE-Sephadex, SAX HPLC and a P-2 gel filtration column. Only the cyclic inositol phosphate derivative residing in Peak I was examined.
(§2) Enzyme Assays. The low Km cAMP PDE was assayed in a rat adipocyte particulate fraction as previously described [Saltiel, A. R., Steigerwalt,R. W., (1986) "Purification of Putative Insulin-Sensitive cAMP Phosphodiesterase or its Catalytic Domain From Rat Adipocytes", DIABETES, 35:698] and as later modified in Publication No. 6. Activity was linear throughout 20 min. and proportional to protein concentration. Only the low Km species of the enzyme was present in this fraction. PDH activity was assayed in liver mitoplasts after preincubation with ATP as previously described [Saltiel et al., (1982) PROC. NATL. ACAD. SCI. U.S.A., 79:3513.]. Adenylate cyclase activity was also assayed in purified adipocyte plasma membranes. For all enzyme assays, variability was less than 5%.
(§3) Liver membranes were treated with or without 10 nM insulin or 1 ug/ml PI-PLC for 10 min. at 37° C. Following cetrifugation, the supernatants were extracted and purified up to and including the SAX HPLC step. Purified extracts were added to enzyme assays at a final dilution of 1:10. Enzyme activities were assayed with no additions or after addition of purified extracts from control, insulin or PIPPLC treated membrane. Percent of basal activity is expressed in parentheses. ^1 expressed as pmoles/mg protein-min. ^2 expressed as nmoles/mg protein-min.

[2] = tested on: Adenylate Cyclase; test: Generation of an enzyme modulator from liver plasma membranes, adenylate cyclase readout; type: biochemical, rat
Protocol: as §1, §2, §3

[3] = tested on: cAMP phosphodiesterase; test: Generation of an enzyme modulator from liver plasma membranes, cAMP phosphodiesterase readout; type: biochemical, rat
Protocol: as §1, §2, §3

[4] = tested on: BC3 Hl cells; test: Diacylglycerol and phosphatidic acid production in labeled BC3 Hl myocytes; type: cell-based, murine
Protocol: FIG. 12--Time Course of Diacylglycerol and Phosphatidic Acid Production in Response to Insulin. Myocytes were incubated for 20 hrs. in serum free DMEM with [9,10^3 H]myristic acid (New England Nuclear), complexed 1:1 to bovine serum albumin. Insulin was added to cells in fresh media for the designated intervals, and reactions were stopped by removal of media and addition of 1 ml chloroform/methanol/1N HCl (200:100:1). 0.6ml H2 O was added and upper aqueous phases were discarded following centrifugation at 500×g for 5 minutes. The lower, organic phases were dried under N2 and resuspended in 1 ml diethyl ether followed by addition of 1 […]. The upper ether phase was aspirated and the lower phase reextracted with 1 ml diethyl ether. The combined ether phases, containing diacylglycerol, were dried under N2, resuspended in chloroform and spotted on silica gel G plates which were preactivated at 60° C. for 1 hr. Plates were twice developed in petroleum ether/diethyl ether/glacial acetic acid (70:30:2). Five ug of unlabeled dimyristoylglycerol were added to each sample. Spots were visualized by iodine staining. To the lower aqueous phases from the ether extraction were added 1 ml of chloroform/methanol (2:1). Following centrifugation, the resulting upper aqueous phases were discarded and the lower organic phases dried under N2, resuspended in chloroform/methanol/H2 O (9:7:2) and spotted on "soft plus" silica gel plates. These were developed in chloroform/pyridine/70% formic acid (50:30:7), and phosphatidic acid was identified by an iodine stained standard. Lipids were scraped and radioactivity determined in a liquid scintillation counter.
BC3 Hl cells were cultured on collagen coated multiwell plates or petri dishes in Dulbecco's minimal essential medium (DMEM) supplemented with 20% Nu serum or 10% fetal calf serum. Cells were grown to maximal density and confluence, at which time they become responsive to insulin. Radiolabeled precursors were added for 20 hrs. in serum-free medium. [^3 H]Myristic and arachidonic acids were complexed 1:1 to bovine serum albumin prior to addition.
Following preincubations with the appropriate isotopes, cells were resuspended in DMEM without serum and treated with 10 nM insulin at the designated intervals. Reactions were terminated by the addition of 1 ml chloroform/methanol/1N HCl (200:100:1), followed by 0.5 ml 10 mM formic acid. Following centrifugation at 500 x g for 5 min., the upper phase was discarded. For phospholipid analyses, the lower, organic phase was dried under N2, resuspended in chloroform/methanol/H2 O (9:7:2) and spotted on oxalate impregnated silica gel G plates. These were sequentially developed in chloroform/acetone/methanol/glacial acidic acid/H2 O (10:4:2:2:1) and chloroform/methanol/4N NH4 OH (45:35:10). One cm regions were scraped and eluted with chloroform/methanol (2:1) and counted. Phosphoinositide standards were identified by iodine staining.
For analysis of neutral lipids, the chloroform/methanol organic phases were dried under N2 and resuspended in 1 ml diethyl ether followed by addition of 1 ml 50 mM formic acid. The upper ether phase was aspirated and the lower aqueous phase was reextracted with 1 ml diethyl ether. The pooled ether phases were dried under N2, resuspended in chloroform and spotted on silica gel G plates which were preactiviated at 60° C. for 1 hr. Plates were twice developed in petroleum ether/diethyl ether/glacial acetic acid (70:30:2). Five ug of unlabeled dimyristoyl glycerol, myristic acid and monomyristoyl glycerol were added as carriers to each sample.

[5] = membranes exposed to 10 nM insulin 10 min.

Insulin: monocomponent bovine insulin
Pyruvate Dehydrogenase activity ([1]; extract as E41, no addition 1.77±0.07, control membranes 2.45±0.20): 4.80±0.38 nmoles/mg protein-min. | stimulation of PDH by the substance generated [1, 5]: 2-3 fold | Adenylate Cyclase activity ([2]; extract as E41, no addition 272±14, control membranes 210±4): 72.0±3.7 pmoles/mg protein-min. | inhibition of adenylate cyclase by the substance generated [2, 5]: 75% | cAMP Phosphodiesterase activity ([3]; extract of liver membranes treated with 10 nM insulin or 1 ug/ml PI-PLC 10 min. 37° C., purified to SAX HPLC, dilution 1:10, no addition 61.7±4.2, control membranes 78.5±5.6): 146±3 pmoles/mg protein-min. | stimulation of PDE by the substance generated [3, 5]: 2-3 fold | generation of [3H]stearyl diacylglycerol [4]: no detectable effect | change in [3H]myristoyl diacylglycerol ([4]; [3H]myristate labeled cells): rapid increase | time of maximal increase in labeled diacylglycerol ([4]; [3H]myristate labeled cells): 1 min | change in [3H]arachidonyl diacylglycerol ([4]; cells incubated with [3H]arachidonic acid): slow increase | increase in levels of [3H]myristate phosphatidic acid ([4]; insulin, achieved by 5 minutes): 2 fold | maximal increase of labeled diacylglycerol over basal ([4]; insulin, by 5-10 minutes): 50% | increase in [3H]myristate diacylglycerol ([4]; insulin, within 1 minute): 40%

From patent US4839466A, “Insulin activity messengers” (The Rockefeller University, priority 1987, dated 1989)
